Results reported in patent US9181223B2, “2-aminopyrimidin-6-ones and analogs exhibiting anti-cancer and anti-proliferative activities” (Deciphera Pharmaceuticals, LLC, priority 2013, dated 2015).
Read-outs that look alike come from different tables or passages of the source.

Experiments:
[1] = target: T1, unphosphorylated c-KIT kinase (uKIT, Seq. ID no. 2) (Homo sapiens, UniProt P10721); assay: uKit kinase assay (ADP production coupled to pyruvate kinase/lactate dehydrogenase); assay type: biochemical
T1 construct: uKit with N-terminal GST fusion used for screening
T1 sequence (P10721 with tags, fused parts or gaps): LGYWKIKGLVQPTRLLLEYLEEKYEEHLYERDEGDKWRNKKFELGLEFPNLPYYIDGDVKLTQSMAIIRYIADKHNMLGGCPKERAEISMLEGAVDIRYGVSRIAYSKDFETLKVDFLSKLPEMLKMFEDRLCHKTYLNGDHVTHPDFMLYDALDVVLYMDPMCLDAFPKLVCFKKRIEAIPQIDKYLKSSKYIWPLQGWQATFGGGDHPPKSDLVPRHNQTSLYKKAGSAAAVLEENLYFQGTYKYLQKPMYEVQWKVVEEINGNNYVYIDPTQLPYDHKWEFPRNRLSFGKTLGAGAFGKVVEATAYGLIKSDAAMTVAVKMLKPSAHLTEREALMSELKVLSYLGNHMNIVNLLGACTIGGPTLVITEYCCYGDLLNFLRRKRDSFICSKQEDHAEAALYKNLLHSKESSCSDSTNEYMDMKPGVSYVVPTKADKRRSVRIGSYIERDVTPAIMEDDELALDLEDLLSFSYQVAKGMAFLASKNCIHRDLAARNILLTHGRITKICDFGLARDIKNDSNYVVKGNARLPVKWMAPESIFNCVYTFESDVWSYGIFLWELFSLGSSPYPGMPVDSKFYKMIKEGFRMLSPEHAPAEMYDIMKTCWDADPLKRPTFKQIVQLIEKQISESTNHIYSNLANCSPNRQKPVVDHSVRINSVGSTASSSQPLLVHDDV
Method: In this assay, the oxidation of NADH (thus the decrease at A340 nm) was continuously monitored spectrophometrically. […] The inhibition reaction was started by mixing serial diluted test compound with the above reaction mixture. The absorption at 340 nm was monitored continuously for 4 hours at 30° C. on Synergy 2 plate reader (BioTech).

PC-3 M-luc cells = assay: PC-3 peritibial implant model of cancer bone metastasis; assay type: in vivo, mouse; conditions: oral dose of 30 mg/kg twice daily for 39 days; scale 0-4; vehicle-treated animals 4
Source text: PC-3 Peritibial Implant Model of Cancer Bone Metastasis To evaluate in vivo anti-cancer activity of compounds of formula I, the PC-3 M-luc peritibial injection model of bone invasiveness model was employed. Briefly, PC-3 M-luc cells were obtained from Xenogen Corporation (Caliper Life Sciences) and expanded using MEM media modified with L-Glutamine (Cell Gro® #10-045-CV) supplemented with 10% fetal bovine serum, 1% penicillin-streptomycin-glutamine, 1% non-essential amino acids, and 1% MEM vitamins in 5% CO2 atmosphere at 37° C. Six to 7 week old male nude mice (Crl:NU-Foxnlnu) were obtained from Charles River Laboratories. Test mice were implanted peritibially on Day 0 with 1×10^6 cells/mouse (0.1 ml) using an insulin syringe with a fixed 28-gauge needle. The needle was inserted at the ankle between the tibia and fibula until the bevel of the needle reached approximately half way between the knee and ankle. Treatments began on Day 0. Animals were dosed by oral gavage twice daily for the study duration. All procedures carried out in this experiment were conducted in compliance with all the laws, regulations and guidelines of the National Institutes of Health (NIH). […]

[2] = target: T2, unphosphorylated PDGFRβ kinase (uPDGFRβ, Seq. ID No. 3) (Homo sapiens, UniProt P09619); assay: uPDGFRβ kinase assay (ADP production coupled to pyruvate kinase/lactate dehydrogenase); assay type: biochemical; conditions: enzymatic assay, ATP 500 μM
T2 construct: purchased DeCode
T2 sequence (P09619 557-1106): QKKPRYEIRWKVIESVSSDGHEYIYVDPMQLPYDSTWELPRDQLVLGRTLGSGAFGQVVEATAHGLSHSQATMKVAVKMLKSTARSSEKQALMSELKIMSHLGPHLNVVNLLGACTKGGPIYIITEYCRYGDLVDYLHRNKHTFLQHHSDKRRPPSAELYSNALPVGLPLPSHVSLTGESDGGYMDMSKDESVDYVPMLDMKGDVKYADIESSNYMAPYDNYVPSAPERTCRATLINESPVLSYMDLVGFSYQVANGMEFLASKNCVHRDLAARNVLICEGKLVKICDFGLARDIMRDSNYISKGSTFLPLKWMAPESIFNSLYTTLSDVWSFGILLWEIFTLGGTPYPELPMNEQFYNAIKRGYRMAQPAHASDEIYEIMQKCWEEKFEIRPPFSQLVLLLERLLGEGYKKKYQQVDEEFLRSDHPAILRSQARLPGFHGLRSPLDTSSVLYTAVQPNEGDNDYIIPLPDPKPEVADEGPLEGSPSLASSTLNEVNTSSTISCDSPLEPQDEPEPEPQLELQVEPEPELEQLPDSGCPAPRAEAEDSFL
Method: Unphosphorylated […]β) Kinase (Seq. ID No. 3) Assay Activity of unphosphorylated PDGFRβ kinase ([…] No. 3) was determined by following the production of ADP from the kinase reaction with ATP and poly E4Y as substrates through coupling with the pyruvate kinase/lactate dehydrogenase system (e.g., Schindler et al. Science (2000) 289: 1938-1942). In this assay, the oxidation of NADH (thus the decrease at A340 nm) was continuously monitored spectrophometrically. The reaction mixture (100 μL) contained PDGFRβ (DeCode, 15.7 nM), polyE4Y (2.5 mg/mL), MgCl2 (10 mM), pyruvate kinase (4 units), lactate dehydrogenase (0.7 units), phosphoenol pyruvate (1 mM) and NADH (0.28 mM) and ATP (500 μM) in a 90 mM Tris buffer containing 0.2% octyl-glucoside and 1% DMSO, at pH 7.5. The inhibition reaction was started by mixing serial diluted test compound with the above reaction mixture. The absorption at 340 nm was monitored continuously for 4 h at 30° C. on a Polarstar Optima or Synergy 2 plate reader. The reaction rate was calculated using the 1.5 to 2.5 h time frame. Percent inhibition was obtained by comparison of reaction rate with that of a control (i.e. with no test compound). IC50 values were calculated from a series of percent inhibition values determined at a range of inhibitor concentrations using software routines as implemented in the GraphPad Prism software package.

osteoclast precursors = assay: Osteoclast tartrate-resistant acid phosphatase assay; assay type: cell-based; conditions: tartrate-resistant acid phosphatase activity, RANKL and M-CSF, 7-14 days
Method: Osteoclast Tartrate-Resistant Acid Phosphatase Assay
A serial dilution of test compound was dispensed into a 384-well black clear bottom plate (Nalge Nunc International, Rochester, N.Y.). Compound was diluted by the addition of DMEM media supplemented with 10% characterized fetal bovine serum (Invitrogen, Carlsbad, Calif.). Diluted compound was transferred to a 384-well black clear bottom plate. Two-thousand five hundred osteoclast precursors (Lonza, Walkersville, Md.) were added per well in growth media containing Receptor Activator of Nuclear Factor Kappa-beta ligand (RANKL) and M-CSF (R&D Systems, Minneapolis, Minn.). Plates were incubated for 7-14 days at 37 degrees Celsius, 5% CO2, and 95% humidity to allow differentiation of osteoclast precursors. At the end of the incubation period, 10 μL of supernatant from each well was transferred to a clear 384-well plate. Tartrate-resistant acid phosphatase activity in the supernatant samples was determined using an acid phosphatase assay kit (Sigma, St. Louis, Mo.). Absorbance was measured at 550 nm using a plate reader. Data was analyzed using Prism software (Graphpad, San Diego, Calif.) to calculate IC50 values.

[3] = target: T3, phospho-FMS in THP-1 cells (Homo sapiens, UniProt P07333); assay: Phospho-FMS ELISA assay in THP-1 cells; assay type: cell-based; conditions: 4 hours compound, M-CSF stimulation 5 minutes, read-out: pFMS inhibition in THP-1 cells
T3 construct: endogenous in cells; host or cells: THP-1 (ATCC TIB-202)
T3 sequence (P07333 20-972): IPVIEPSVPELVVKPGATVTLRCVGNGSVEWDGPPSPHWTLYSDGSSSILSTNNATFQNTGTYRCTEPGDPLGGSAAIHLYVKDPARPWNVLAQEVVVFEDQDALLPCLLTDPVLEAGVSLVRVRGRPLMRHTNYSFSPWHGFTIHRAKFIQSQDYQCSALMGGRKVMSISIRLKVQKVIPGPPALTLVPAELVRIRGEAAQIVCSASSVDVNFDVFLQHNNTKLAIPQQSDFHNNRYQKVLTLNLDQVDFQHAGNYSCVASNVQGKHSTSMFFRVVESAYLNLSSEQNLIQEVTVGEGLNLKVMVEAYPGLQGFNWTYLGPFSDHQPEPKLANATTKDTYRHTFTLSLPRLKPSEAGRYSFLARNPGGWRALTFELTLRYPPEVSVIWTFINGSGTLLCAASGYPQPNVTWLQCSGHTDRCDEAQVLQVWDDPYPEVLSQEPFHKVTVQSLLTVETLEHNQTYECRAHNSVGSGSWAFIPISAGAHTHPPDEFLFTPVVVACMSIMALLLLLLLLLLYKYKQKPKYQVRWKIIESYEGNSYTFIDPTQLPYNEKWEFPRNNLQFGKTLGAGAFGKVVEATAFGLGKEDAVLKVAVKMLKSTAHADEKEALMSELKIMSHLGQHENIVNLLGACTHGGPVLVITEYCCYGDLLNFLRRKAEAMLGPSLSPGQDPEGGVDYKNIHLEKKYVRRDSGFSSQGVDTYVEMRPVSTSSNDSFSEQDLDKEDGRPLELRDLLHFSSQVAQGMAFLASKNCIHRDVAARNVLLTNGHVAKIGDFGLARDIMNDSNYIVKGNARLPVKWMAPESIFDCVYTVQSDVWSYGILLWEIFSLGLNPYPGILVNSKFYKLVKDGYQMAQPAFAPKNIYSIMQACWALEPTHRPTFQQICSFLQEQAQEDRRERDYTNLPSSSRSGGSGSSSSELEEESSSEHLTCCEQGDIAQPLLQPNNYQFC
Method: Cells were allowed to expand until reaching 70-95% confluency at which point they were subcultured or harvested for assay use.
In a separate 96 well black clear bottom plate, one hundred and fifty thousand THP-1 cells were added per well in 100 μL in assay medium. Fifty microliters of diluted compound was then added to the cells. Plates were incubated for 4 hours at 37 degrees Celsius, 5% CO2, 95% humidity. […] Lysates were prepared and used to perform the phospho-FMS ELISA as described by the manufacturer (catalog #DYC3268, R & D Systems, Minneapolis, Minn.). GraphPad Prism was used to calculate IC50 values obtained from data generated from the ELISA assay.

[4] = target: T4, unphosphorylated c-FMS kinase (uFMS, Seq. ID no. 1) (Homo sapiens, UniProt P07333); assay: uFMS kinase assay (ADP production coupled to pyruvate kinase/lactate dehydrogenase); assay type: biochemical; conditions: enzymatic assay, ATP 500 μM
T4 construct: purchased Millipore
T4 sequence (P07333 538-972): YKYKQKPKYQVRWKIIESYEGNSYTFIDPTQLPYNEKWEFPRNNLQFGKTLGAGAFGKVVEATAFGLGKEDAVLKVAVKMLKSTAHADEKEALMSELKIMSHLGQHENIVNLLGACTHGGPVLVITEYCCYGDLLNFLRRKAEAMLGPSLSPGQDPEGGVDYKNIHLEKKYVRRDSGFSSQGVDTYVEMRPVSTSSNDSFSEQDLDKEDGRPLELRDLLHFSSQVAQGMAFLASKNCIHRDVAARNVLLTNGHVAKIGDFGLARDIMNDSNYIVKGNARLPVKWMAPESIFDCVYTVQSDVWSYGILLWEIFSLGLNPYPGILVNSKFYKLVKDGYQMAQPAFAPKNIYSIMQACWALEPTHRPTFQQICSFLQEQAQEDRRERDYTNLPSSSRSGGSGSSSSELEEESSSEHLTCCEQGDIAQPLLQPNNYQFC
Method: uFMS Kinase (Seq. ID No. 1) Assay
In this assay, the oxidation of NADH (thus the decrease at A340 nm) was continuously monitored spectrophometrically. The reaction mixture (100 μL) contained FMS (purchased from Millipore) (10 nM), polyE4Y (1 mg/mL), MgCl2 (10 mM), pyruvate kinase (4 units), lactate dehydrogenase (0.7 units), phosphoenol pyruvate (1 mM), NADH (0.28 mM) and ATP (500 μM) in 90 mM Tris buffer containing 0.2% octyl-glucoside and 1% DMSO, pH 7.5. The inhibition reaction was started by mixing serial diluted test compound with the above reaction mixture. The absorption at 340 nm was monitored continuously for 4 hours at 30° C. on Synergy 2 plate reader. The reaction rate was calculated using the 3 to 4 h time frame. Percent inhibition was obtained by comparison of reaction rate with that of a control (i.e. in the absence of test compound). IC50 values were calculated from a series of percent inhibition values determined at a range of inhibitor concentrations using software routines as implemented in the GraphPad Prism software package.

M-NFS-60 cells = assay: M-NFS-60 cell proliferation assay (resazurin); assay type: cell-based; conditions: 67 h incubation
Method: M-NFS-60 cells (catalog #CRL-1838) were obtained from the American Type Culture Collection (ATCC, Manassas, Va.). Briefly, cells were grown in suspension in RPMI 1640 medium supplemented with 10% characterized fetal bovine serum (Invitrogen, Carlsbad, Calif.), 0.05 mM 2-mercaptoethanol, and 20 ng/mL mouse recombinant macrophage colony stimulating factor (M-CSF) at 37° C., 5% CO2, and 95% humidity. Cells were allowed to expand until reaching saturation at which point they were subcultured or harvested for assay use.
M-NFS-60 Cell Proliferation Assay
A serial dilution of test compound was dispensed into a 384-well black clear bottom plate (Corning, Corning, N.Y.). Two thousand five hundred cells were added per well in 50 μL complete growth medium. Plates were incubated for 67 h at 37° C., 5% CO2, and 95% humidity. At the end of the incubation period 10 μL of a 440 µM solution of resazurin (Sigma, St. Louis, Mo.) in PBS was added to each well and incubated for an additional 5 h at 37° C., 5% CO2, and 95% humidity. Plates were read on a Synergy2 reader (Biotek, Winooski, Vt.) using an excitation of 540 nm and an emission of 600 nm. IC50 values were calculated from a series of percent inhibition values determined at a range of inhibitor concentrations using software routines as implemented in the GraphPad Prism software package.

[5] = enzymatic assay, ATP 2000 μM, read-out: uKIT

Cc1nc(-c2cnc(NC(C)C)n(C)c2=O)ccc1Oc1ccnc(-c2cnn(C)c2)c1 [Example 10, 2-(isopropylamino)-3-methyl-5-(6-methyl-5-((2-(1-methyl-1H-pyrazol-4-yl)pyridin-4-yl)oxy)pyridin-2-yl)pyrimidin-4(3H)-one]
IC50 [1]: 0.1 to 1 µM | lesion score (PC-3 M-luc cells): 2 | IC50 [2]: > 1 µM | IC50 (osteoclast precursors): < 0.01 µM

Cc1nc(-c2cnc(N3CCC(F)(F)C3)[nH]c2=O)ccc1Oc1ccnc(-c2cnn(C)c2)c1 [Example 30, 2-(3,3-difluoropyrrolidin-1-yl)-5-(6-methyl-5-((2-(1-methyl-1H-pyrazol-4-yl)pyridin-4-yl)oxy)pyridin-2-yl)pyrimidin-4(3H)-one]
IC50 [3]: 0.01 to 0.1 µM | IC50 [1, 5]: > 1 µM | IC50 [4]: 0.01 to 0.1 µM | IC50 [2]: > 1 µM | IC50 (M-NFS-60 cells): 0.1 to 1 µM | IC50 (osteoclast precursors): 0.01 to 0.1 µM

Cc1nc(-c2cnc(NC(C)(C)C)[nH]c2=O)ccc1Oc1ccnc(-c2cnn(C)c2)c1 [Example 28, 2-(tert-butylamino)-5-(6-methyl-5-((2-(1-methyl-1H-pyrazol-4-yl)pyridin-4-yl)oxy)pyridin-2-yl)pyrimidin-4(3H)-one]
IC50 [3]: 0.01 to 0.1 µM | IC50 [1, 5]: 0.01 to 0.1 µM | IC50 [4]: < 0.01 µM | IC50 [2]: 0.01 to 0.1 µM | IC50 (M-NFS-60 cells): 0.01 to 0.1 µM | IC50 (osteoclast precursors): 0.01 to 0.1 µM

CCNc1ncc(-c2ccc(Oc3ccnc(-c4cnn(C)c4)c3)c(C)n2)c(=O)n1C [Example 25, 2-(ethylamino)-3-methyl-5-(6-methyl-5-((2-(1-methyl-1H-pyrazol-4-yl)pyridin-4-yl)oxy)pyridin-2-yl)pyrimidin-4(3H)-one]
IC50 [3]: 0.01 to 0.1 µM | IC50 [1, 5]: 0.1 to 1 µM | IC50 [4]: 0.01 to 0.1 µM | IC50 [2]: > 1 µM | IC50 (M-NFS-60 cells): 0.01 to 0.1 µM | IC50 (osteoclast precursors): 0.01 to 0.1 µM

COC[C@@H](C)Nc1ncc(-c2ccc(Oc3ccnc(-c4cnn(C)c4)c3)c(C)n2)c(=O)[nH]1 [Example 22, (R)-2-((1-methoxypropan-2-yl)amino)-5-(6-methyl-5-((2-(1-methyl-1H-pyrazol-4-yl)pyridin-4-yl)oxy)pyridin-2-yl)pyrimidin-4(3H)-one]
IC50 [3]: 0.1 to 1 µM | IC50 [1, 5]: > 1 µM | IC50 [4]: 0.01 to 0.1 µM | IC50 [2]: > 1 µM | IC50 (M-NFS-60 cells): 0.01 to 0.1 µM | IC50 (osteoclast precursors): < 0.01 µM

Cc1nc(-c2cnc(NCC(C)(C)C)[nH]c2=O)ccc1Oc1ccnc(-c2cnn(C)c2)c1 [Example 29, 5-(6-methyl-5-((2-(1-methyl-1H-pyrazol-4-yl)pyridin-4-yl)oxy)pyridin-2-yl)-2-(neopentylamino)pyrimidin-4(3H)-one]
IC50 [3]: 0.01 to 0.1 µM | IC50 [1, 5]: 0.01 to 0.1 µM | IC50 [4]: < 0.01 µM | IC50 [2]: 0.1 to 1 µM | IC50 (M-NFS-60 cells): 0.01 to 0.1 µM | IC50 (osteoclast precursors): 0.01 to 0.1 µM
